Source: patent US8722670B2, “Selective NR2B antagonists” (Bristol-Myers Squibb Company, priority 2011, dated 2014)
Like-named read-outs stand apart in the source and are kept apart here.

Target: T1, hNR2B (Homo sapiens, UniProt Q05586+Q13224)
T1 construct: expressed in transfected cells; host or cells: Xenopus laevis oocytes, cRNA-injected
Test: Electrophysiology NMDA receptor experiments: two electrode voltage-clamp in Xenopus laevis oocytes, hNR2B IC50
Format: cell-based
Details: 50 μM glutamate, 30 μM glycine

[1] = hNR2B activity class, read-out: Activity
[2] = voltage clamp -40 mV, read-out: hNR2B IC50

T1 sequence (Q13224 27-1484, other chains not shown): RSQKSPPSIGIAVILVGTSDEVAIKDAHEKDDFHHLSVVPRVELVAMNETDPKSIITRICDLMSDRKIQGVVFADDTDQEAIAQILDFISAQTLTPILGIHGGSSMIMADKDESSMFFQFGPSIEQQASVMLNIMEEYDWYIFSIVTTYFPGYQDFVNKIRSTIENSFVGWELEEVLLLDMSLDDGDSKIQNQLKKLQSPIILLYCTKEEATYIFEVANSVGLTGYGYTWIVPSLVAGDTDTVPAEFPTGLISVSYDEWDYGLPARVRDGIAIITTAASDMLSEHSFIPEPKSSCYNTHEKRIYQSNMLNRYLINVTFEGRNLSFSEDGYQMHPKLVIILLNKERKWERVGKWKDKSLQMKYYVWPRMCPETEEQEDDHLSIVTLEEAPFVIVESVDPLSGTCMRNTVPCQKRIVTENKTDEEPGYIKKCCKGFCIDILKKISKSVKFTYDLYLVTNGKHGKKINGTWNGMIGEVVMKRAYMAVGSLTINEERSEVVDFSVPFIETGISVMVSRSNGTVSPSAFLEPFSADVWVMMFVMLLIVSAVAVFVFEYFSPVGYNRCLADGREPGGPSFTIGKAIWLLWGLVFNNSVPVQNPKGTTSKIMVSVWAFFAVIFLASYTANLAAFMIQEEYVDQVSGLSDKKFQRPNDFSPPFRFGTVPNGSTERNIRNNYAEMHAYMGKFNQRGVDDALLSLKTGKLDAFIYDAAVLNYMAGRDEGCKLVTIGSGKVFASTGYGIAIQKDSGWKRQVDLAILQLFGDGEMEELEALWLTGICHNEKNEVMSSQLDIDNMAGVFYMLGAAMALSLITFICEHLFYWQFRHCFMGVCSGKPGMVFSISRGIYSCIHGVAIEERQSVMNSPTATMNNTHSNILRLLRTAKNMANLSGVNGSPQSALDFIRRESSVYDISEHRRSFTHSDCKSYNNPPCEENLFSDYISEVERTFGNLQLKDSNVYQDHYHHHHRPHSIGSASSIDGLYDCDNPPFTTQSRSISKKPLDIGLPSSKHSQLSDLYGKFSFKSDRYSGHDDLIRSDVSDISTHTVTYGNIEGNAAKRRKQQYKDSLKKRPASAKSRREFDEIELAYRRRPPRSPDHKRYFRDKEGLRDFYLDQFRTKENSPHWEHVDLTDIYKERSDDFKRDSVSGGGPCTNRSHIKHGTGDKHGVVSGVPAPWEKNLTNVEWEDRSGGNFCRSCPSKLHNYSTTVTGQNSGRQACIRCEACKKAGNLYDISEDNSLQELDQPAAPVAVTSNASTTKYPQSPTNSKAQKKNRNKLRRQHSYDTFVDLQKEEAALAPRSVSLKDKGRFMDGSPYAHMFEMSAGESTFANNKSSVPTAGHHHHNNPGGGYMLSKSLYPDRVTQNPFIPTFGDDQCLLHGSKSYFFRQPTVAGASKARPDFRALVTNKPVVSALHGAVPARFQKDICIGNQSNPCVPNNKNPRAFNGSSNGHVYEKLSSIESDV

IC50 [1] [nM] | Structure (SMILES) | other results
> 10000 | O=c1ccc2cc(OCc3nc(Nc4ccc(C(F)(F)F)c(F)c4)no3)ccc2[nH]1 [Example 157] | 
1000 to 10000 | O=c1ccc2cc(OCc3nnc(Nc4ccc(Oc5ccccc5)cc4)o3)ccc2[nH]1 [Example 91] | 
201 to 1000 | Cc1cccc(CNc2nnc(COc3ccc4[nH]c(=O)ccc4c3)o2)c1 [Example 94] | 
> 10000 | FC(F)(F)Oc1ccc(Nc2noc(CCc3ccc4[nH]nc(C(F)(F)F)c4c3)n2)cc1 [Example 195] | 
1000 to 10000 | Oc1ccc(CCc2nc(Nc3ccc(Cl)c(Cl)c3)no2)cc1 [Example 232] | 
> 10000 | CCOC(=O)Cc1ccc(Nc2nnc(COc3ccc4c(c3)CCC(=O)N4)o2)cc1 [Example 18] | 
1000 to 10000 | Clc1ccc(CNc2noc(COc3ccc4[nH]ncc4c3)n2)cc1 [Example 189] | 
1000 to 10000 | O=c1ccc2cc(OCc3nnc(Nc4ccccc4)o3)ccc2[nH]1 [Example 34] | 
201 to 1000 | O=C1COc2cc(OCc3nnc(Nc4ccc(Cl)c(Cl)c4)o3)ccc2N1 [Example 125] | 
201 to 1000 | O=C1CCc2cc(OCc3nnc(Nc4ccc(OC(F)(F)F)cc4)o3)ccc2N1 [Example 14] | 
< 200 | O=C1Cc2cc(OCc3nnc(NCc4ccc(Cl)c(Cl)c4)o3)ccc2N1 [Example 9] | 
1000 to 10000 | Oc1cccc(OCc2nnc(Nc3ccc(Cl)c(Cl)c3)o2)c1 [Example 116] | 
< 200 | O=c1ccc2cc(OCc3nnc(Nc4ccc(Cl)c(Cl)c4)o3)ccc2[nH]1 [Example 10] | 
< 200 | O=c1ccc2cc(OCc3cc(Nc4ccc(OC(F)F)cc4)no3)ccc2[nH]1 [Example 260] | 
< 200 | O=c1ccc2cc(OCc3nnc(Nc4ccc(Cl)c(Cl)c4)s3)ccc2[nH]1 [Example 243] | 
1000 to 10000 | O=c1ccc2cc(OCc3nnc(NCc4ccccc4F)o3)ccc2[nH]1 [Example 100] | 
< 200 | Cc1cc(Nc2cc(COc3ccc4[nH]ncc4c3)on2)ccc1OC(F)F [Example 272] | 
201 to 1000 | Oc1ccc(CCc2nc(Nc3ccc(Cl)cc3)no2)cc1 [Example 225] | 
> 10000 | Clc1ccc(Nc2noc(COc3ccc4[nH]ncc4c3)n2)cc1Cl [Example 187] | 
< 200 | FC(F)Oc1ccc(Nc2cc(COc3ccc4[nH]ncc4c3)on2)cc1Cl [Example 258] | 
> 10000 | FC(F)(F)c1ccc(Nc2noc(COc3ccc4[nH]ncc4c3)n2)cc1 [Example 188] | 
< 200 | O=C1CCc2cc(CCc3nnc(Nc4ccc(OC(F)F)cc4)o3)ccc2N1 [Example 133] | 
1000 to 10000 | Cc1cccc(Nc2nnc(COc3ccc4[nH]c(=O)ccc4c3)o2)c1 [Example 46] | 
201 to 1000 | Oc1c(F)cc(OCc2nnc(Nc3ccc(Cl)c(Cl)c3)o2)cc1F [Example 119] | 
< 200 | O=c1ccc2cc(CCc3nnc(Nc4ccc(OC(F)(F)F)c(Cl)c4)o3)ccc2[nH]1 [Example 137] | 
1000 to 10000 | O=c1ccc2cc(OCc3nc(Nc4cc(Cl)cc(Cl)c4)no3)ccc2[nH]1 [Example 164] | 
1000 to 10000 | Oc1ccc(Cc2nnc(NCc3ccc(Cl)c(Cl)c3)o2)cc1 [Example 150] | 

The next lines start with the compound.

Structure (SMILES) | IC50 [1] [nM] | other results
O=c1ccc2cc(OCc3nnc(NCc4ccc(Cl)c(Cl)c4)o3)ccc2[nH]1 [Example 22] | < 200 | 
O=C1CCc2cc(OCc3nnc(Nc4ccc(Cl)cc4)o3)ccc2N1 [Example 1, 6-((5-(4-chlorophenylamino)-1,3,4-oxadiazol-2-yl)methoxy)-3,4-dihydroquinolin-2(1H)-one] |  | IC50 [2]: 715 nM
O=C1CCc2cc(CCc3nc(Nc4ccc(Cl)c(Cl)c4)no3)ccc2N1 [Example 194, 6-(2-(3-(3,4-dichlorophenylamino)-1,2,4-oxadiazol-5-yl)ethyl)-3,4-dihydroquinolin-2(1H)-one] |  | IC50 [2]: > 10000 nM
Clc1ccc(Nc2noc(CCc3ccc4[nH]ncc4c3)n2)cc1Cl [Example 198] | 1000 to 10000 | 
O=c1ccc2cc(OCc3nnc(Nc4cc(Cl)cc(Cl)c4)o3)ccc2[nH]1 [Example 53] |  | IC50 [2]: 4040 nM
Oc1ccc(CCc2nc(Nc3ccc(OC(F)F)c(F)c3)no2)cc1 [Example 219] | < 200 | 
O=c1ccc2cc(OCc3nnc(NCc4ccc(OC(F)(F)F)cc4)o3)ccc2[nH]1 [Example 26] | < 200 | 
O=c1ccc2cc(OCc3nnc(NCc4ccccc4Cl)o3)ccc2[nH]1 [Example 63] | 1000 to 10000 | 
Fc1cc(Nc2nnc(CCCc3ccc4[nH]ncc4c3)o2)ccc1Cl [Example 146] |  | IC50 [2]: 230 nM
O=C1CCc2cc(CCc3nnc(Nc4ccc(Cl)c(Cl)c4)o3)ccc2N1 [Example 131] | < 200 | 
Oc1ccc(OCc2nc(Nc3ccc(C(F)(F)F)cc3)no2)cc1 [Example 185] | 1000 to 10000 | 
O=c1ccc2cc(OCc3cc(Nc4ccc(OC(F)F)c(F)c4)no3)ccc2[nH]1 [Example 267] | < 200 | 
O=C1CCc2cc(OCc3csc(Nc4ccc(Cl)c(Cl)c4)n3)ccc2N1 [Example 252, 6-((2-(3,4-dichlorophenylamino)thiazol-4-yl)methoxy)-3,4-dihydroquinolin-2(1H)-one] |  | IC50 [2]: 24000 nM
O=c1ccc2cc(C3CC3c3nnc(Nc4ccc(C(F)(F)F)cc4)o3)ccc2[nH]1 (centres unmarked) [Example 154, 6-(2-(5-((4-(trifluoromethyl)phenyl)amino)-1,3,4-oxadiazol-2-yl)cyclopropyl)quinolin-2(1H)-one] |  | IC50 [2]: 9.5 nM
O=C1CCc2cc(OCc3noc(Nc4ccc(Cl)c(Cl)c4)n3)ccc2N1 [Example 239, 6-((5-((3,4-dichlorophenyl)amino)-1,2,4-oxadiazol-3-yl)methoxy)-3,4-dihydroquinolin-2(1H)-one] |  | IC50 [2]: 3600 nM
Cc1cc(Nc2cc(COc3ccc4[nH]c(=O)ccc4c3)on2)ccc1F [Example 270] | 1000 to 10000 | 
Oc1cccc(Cc2nnc(Nc3ccc(Cl)c(Cl)c3)o2)c1 [Example 147] | 1000 to 10000 | 
O=c1ccc2cc(OCc3nc(Nc4ccc(F)c(Cl)c4)no3)ccc2[nH]1 [Example 192] | 1000 to 10000 | 
O=C1CCc2cc(OCCNc3nnc(-c4ccc(C(F)(F)F)cc4)o3)ccc2N1 [Example 291, 6-(2-(5-(4-(trifluoromethyl)phenyl)-1,3,4-oxadiazol-2-ylamino)ethoxy)-3,4-dihydroquinolin-2(1H)-one] |  | IC50 [2]: 1200 nM
O=c1ccc2cc(OCc3nnc(NCc4ccc(Cl)c(Cl)c4)s3)ccc2[nH]1 [Example 249] | 201 to 1000 | 
O=C1CCc2cc(OCc3nnc(Nc4ccc(OC(F)F)cc4)o3)ccc2N1 [Example 16] | 201 to 1000 | 
O=c1ccc2cc(OCc3nnc(-c4ccc(Cl)c(Cl)c4)o3)ccc2[nH]1 [Example 2, 6-((5-(3,4-dichlorophenyl)-1,3,4-oxadiazol-2-yl)methoxy)quinolin-2(1H)-one] |  | IC50 [2]: > 10000 nM
Cc1ccc(Nc2nnc(COc3ccc4[nH]c(=O)ccc4c3)o2)cc1 [Example 45] | 201 to 1000 | 

Structure (SMILES) | IC50 [1] [nM] | other results
CC(C)OC(=O)Nc1ccc(OCc2nnc(Nc3ccc(Cl)c(Cl)c3)o2)cc1 [Example 3, Isopropyl 4-((5-(3,4-dichlorophenylamino)-1,3,4-oxadiazol-2-yl)methoxy)phenyl carbamate] |  | IC50 [2]: 7300 nM
O=C1CCc2cc(OCc3nc(Nc4ccc(Cl)c(Cl)c4)no3)ccc2N1 [Example 156, 6-((3-(3,4-dichlorophenylamino)-1,2,4-oxadiazol-5-yl)methoxy)-3,4-dihydroquinolin-2(1H)-one] |  | IC50 [2]: 390 nM
O=c1ccc2cc(OCc3nnc(Nc4ccc(Cl)cc4)[nH]3)ccc2[nH]1 [Example 282] |  | IC50 [2]: 290 nM
Clc1ccc(Nc2nnc(CCCc3ccc4[nH]ncc4c3)o2)cc1Cl [Example 145] | 1000 to 10000 | 
O=C1CCc2cc(OCc3nnc(-c4ccc(Cl)cc4)[nH]3)ccc2N1 [Example 286, 6-((5-(4-chlorophenyl)-4H-1,2,4-triazol-3-yl)methoxy)-3,4-dihydroquinolin-2(1H)-one] |  | IC50 [2]: 3000 nM
O=c1ccc2cc(OCc3cc(Nc4ccc(Cl)c(C(F)(F)F)c4)no3)ccc2[nH]1 [Example 263] | 1000 to 10000 | 
O=C1CCc2cc(OCc3nnc(NCc4ccc(OC(F)(F)F)cc4)o3)ccc2N1 [Example 23] | < 200 | 
Cc1ccc(Nc2cc(COc3ccc4[nH]ncc4c3)on2)cc1F [Example 271] | < 200 | 
O=c1ccc2cc(OCc3nnc(Nc4ccc(F)cc4)o3)ccc2[nH]1 [Example 40] | 1000 to 10000 | 
O=c1ccc2cc(OCc3nnc(Nc4cccc(Cl)c4Cl)o3)ccc2[nH]1 [Example 59] | < 200 | 
O=c1ccc2cc(OCc3nc(Nc4ccc(OC(F)F)cc4)no3)ccc2[nH]1 [Example 190] |  | IC50 [2]: 168 nM
FC(F)(F)c1ccc(Nc2nnc(CCc3ccc4[nH]ncc4c3)o2)cc1 [Example 144] | < 200 | 
Oc1ccc(CCc2nnc(Nc3ccc(Cl)c(Cl)c3)o2)cc1 [Example 151] | < 200 | 
O=c1ccc2cc(OCc3nnc(Cc4ccc(Cl)c(Cl)c4)[nH]3)ccc2[nH]1 [Example 285, 6-((5-(3,4-dichlorobenzyl)-4H-1,2,4-triazol-3-yl)methoxy)quinolin-2(1H)-one] |  | IC50 [2]: 5000 nM
O=c1ccc2cc(OCc3nnc(Nc4cccc(C(F)(F)F)c4)o3)ccc2[nH]1 [Example 42] | 201 to 1000 | 
O=C1CCc2cc(OCc3nc(Cc4ccc(Cl)cc4)no3)ccc2N1 [Example 287, 6-((3-(4-chlorobenzyl)-1,2,4-oxadiazol-5-yl)methoxy)-3,4-dihydroquinolin-2(1H)-one] |  | IC50 [2]: 3800 nM
O=c1ccc2cc(OCc3nnc(NCc4ccc(Cl)nc4)o3)ccc2[nH]1 [Example 24] |  | IC50 (Activity, hNR2B activity class): 1000 to 10000 nM; IC50 (hNR2B IC50 (nM), voltage clamp -40 mV): 7240 nM
O=c1ccc2cc(OCc3nc(Nc4ccc(Cl)cc4)no3)ccc2[nH]1 [Example 183] | 1000 to 10000 | 
O=c1ccc2cc(OCc3nnc(Nc4ccc(C(F)(F)F)cc4)s3)ccc2[nH]1 [Example 241] |  | IC50 [2]: 30 nM
O=C1CCc2cc(OCc3nc(Nc4ccc(C(F)(F)F)cc4)no3)ccc2N1 [Example 180] | 1000 to 10000 | 
O=c1ccc2cc(OCc3nnc(NCc4cccc(Cl)c4)o3)ccc2[nH]1 [Example 77] | 201 to 1000 | 
O=c1ccc2cc(OCc3nnc(Nc4ccc(OC(F)(F)F)cc4)s3)ccc2[nH]1 [Example 245] | < 200 | 
O=c1ccc2cc(OCc3nnc(Nc4ccc(Cl)cc4F)o3)ccc2[nH]1 [Example 35] |  | IC50 [2]: 884 nM
